From PubChem BioAssay AID1552 (Sanford-Burnham Center for Chemical Genomics, 2009) come the findings set out here.

Calls of active or inactive are those of the source. No rule for the calls is given here.

The test deals with Ubiquitin-conjugating enzyme E2 N (Homo sapiens) (UniProt P61088). Kind of test: NMR detection of UBE2N ligand binding – biophysical, purified protein (AID 1552). The note with it: NMR binding to purified UBE2N.
Sequence of Ubiquitin-conjugating enzyme E2 N (Homo sapiens) (P61088 whole entry, looked up): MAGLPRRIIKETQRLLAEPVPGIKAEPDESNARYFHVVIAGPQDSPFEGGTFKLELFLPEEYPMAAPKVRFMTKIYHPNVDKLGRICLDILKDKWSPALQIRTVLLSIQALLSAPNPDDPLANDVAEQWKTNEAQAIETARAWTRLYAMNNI
In general, Kd refers to a measure of binding affinity in units of concentration. As for `O=C(Cc1c(F)cccc1Cl)Nc1ccncc1`, the Kd is > 4 mM (inactive).

For `CC(=O)c1csc(-c2cc(C)on2)n1`, the Kd is > 4 mM (inactive). The figure for `S=C(Nc1ccc2nccnc2c1)N1CCOCC1` is > 4 mM (inactive); for `Nc1ccc(OCc2ccccc2)cc1` it is > 4 mM (inactive); for `CC(=O)C1=C(O)C(=O)NC1c1ccccc1` (centres undefined) it is > 4 mM (inactive).

In the case of `Cn1c(CN2CC(c3ccccc3)CC2=O)n[nH]c1=S` (centres undefined), the Kd was > 4 mM (inactive). With `O=C(CS(=O)(=O)c1ccccc1)N1CCCCCC1` the figure was > 4 mM (inactive); with `Cc1ncoc1C(=O)Nc1ncc([N+](=O)[O-])s1`, > 4 mM (inactive). With `OCc1cc(F)cc2c1OCOC2` the figure was > 4 mM (inactive); with `COc1cc(NC(=O)c2ccccc2)c(C)cc1N`, > 4 mM (inactive); with `OC1COCc2nc3ccccc3n2C1` (centres undefined), > 4 mM (inactive).

With `NCc1cc2ccccc2s1`, the Kd was > 4 mM (inactive). Regarding `COc1ccc(-c2coc3cc(O)ccc3c2=O)c(O)c1O`, the Kd is > 4 mM (inactive). Turning to `NCc1ccc(S(=O)(=O)O)cc1`, the Kd is > 4 mM (inactive). With `Cc1nc(N2CCOCC2)[nH]c(=O)c1C` the figure was > 4 mM (inactive); with `C[C@@H]1CC[C@@]23CCC4(C)[C@@](C=CC5[C@@]6(C)CCC(=O)C(C)(C)C6CC[C@]54C)(OC2=O)C3[C@H]1C` (some centres undefined), > 4 mM (inactive). The figure for `CC1(C)N=C2C(=N)C=CC=C2N1O` is > 4 mM (inactive); for `NC1CS(=O)(=O)CC1O` (centres undefined) it is > 4 mM (inactive). For `CCCCCC1C(=O)CCC1CC(=O)OC` (centres undefined), the Kd was > 4 mM (inactive). `Cc1ccc(C(=O)Nn2cnnc2)c(Cl)c1`: the Kd was > 4 mM (inactive). With `Nc1cccc(S(=O)(=O)N2CCCCC2)c1`, the Kd was > 4 mM (inactive). For `O=C(NCCO)c1cc2ccccc2cc1O`, the Kd was > 4 mM (inactive).

With `Cn1c(=O)c2c(ncn2C)n(C)c1=O`, the Kd was > 4 mM (inactive). For `Cn1c(=O)n(C)c2cc(C(N)=O)ccc21`, the Kd is > 4 mM (inactive). For the molecule `Cn1ncc(C(=O)O)c1-c1ccccc1`, the Kd was > 4 mM (inactive). With `COc1cc2c(cc1O)CCNC2C` (centres undefined) the figure was > 4 mM (inactive).

Regarding `CC1CCN(S(=O)(=O)N(C)C)CC1`, the Kd is > 4 mM (inactive).

For `O=C1CN(C(=O)CN2CCOCC2)c2ccccc2N1`, the Kd was > 4 mM (inactive). For `Clc1ccc(SCCn2cncn2)cc1`, the Kd was > 4 mM (inactive). With `O=C(O)c1cc(F)cc2c1OCOC2` the figure was > 4 mM (inactive); with `O=C1C=CC(=O)c2c(O)cccc21`, > 4 mM (inactive). In the case of `O=C(O)c1snnc1-c1ccccc1`, the Kd is > 4 mM (inactive). The figure for `COc1ccc2c(c1)OC/C(=C/c1ccc(OC)c(OC)c1)C2=O` is > 4 mM (inactive). `Cc1ccc(-c2nnn(CC(=O)O)n2)cc1`: the Kd is > 4 mM (inactive). Turning to `Cc1n[nH]c(=S)[nH]c1=O`, the Kd was > 4 mM (inactive). As for `CNC(=O)CC1Sc2ccccc2NC1=O` (centres undefined), the Kd is > 4 mM (inactive). With `CN1CCN(C(=O)/C=C\C(=O)O)CC1` the figure was > 4 mM (inactive); with `Cc1ccc(C(=O)NC2=NCCS2)o1`, > 4 mM (inactive); with `Cc1ccc(-c2nc(N)n(C(=O)c3cccnc3)n2)cc1`, > 4 mM (inactive). For the molecule `NC(=O)Nc1cccc(C(F)(F)F)c1`, the Kd is > 4 mM (inactive). The figure for `COc1ccc(NC(=O)/C=N/O)cc1` is > 4 mM (inactive); for `O=C(O)C1(S(=O)(=O)c2ccccc2)CC1` it is > 4 mM (inactive); for `CC(C)CCCC(C)[C@H]1CCC2C3CC=C4CC(=O)CC[C@]4(C)C3CC[C@@]21C` (some centres undefined) it is > 4 mM (inactive). Turning to `CCCCCc1c2c(cc(O)c1C(=O)O)OC(=O)c1c(cc(OC)cc1C(=O)CCCC)O2`, the Kd was > 4 mM (inactive). The figure for `O=C(c1ccccc1)c1ccccc1C(=O)N1CCCC1` is > 4 mM (inactive); for `OCc1ncoc1-c1ccccc1` it is > 4 mM (inactive).

For the molecule `O=C(Cc1cccs1)N1CCOCC1`, the Kd was > 4 mM (inactive). For the molecule `COc1ccc([C@@H](C)C(=O)c2ccc(O)cc2O)cc1`, the Kd is > 4 mM (inactive).

As for `Nc1nc2[nH]c(=O)c(=O)[nH]c2c(=O)[nH]1`, the Kd was > 4 mM (inactive). Regarding `O=C(O)C1CC(=O)N(Cc2ccco2)C1` (centres undefined), the Kd is > 4 mM (inactive). On to `Cc1nc2sccn2c1C(=O)O`, for which the Kd was > 4 mM (inactive). The figure for `CC(C)=NNC(=O)c1ccccc1` is > 4 mM (inactive); for `COc1cccc(NC(=O)c2nc3ncccn3n2)c1` it is > 4 mM (inactive). The figure for `COc1ccccc1NC(=O)c1ccc(Br)o1` is > 4 mM (inactive).

Consider `CCC1(CC)C(=O)N=C(N)NC1=O`, for which the Kd was > 4 mM (inactive).

Regarding `c1cc2n(c1)CCNC2c1ccncc1` (centres undefined), the Kd is > 4 mM (inactive).

For `c1ccc(Cc2nnc(-c3ccccc3)o2)cc1`, the Kd was > 4 mM (inactive). In the case of `Cc1ccc(SCc2nc(-c3cccnc3)no2)cc1`, the Kd was > 4 mM (inactive). The figure for `COc1ccc(-c2oc3cc(O[C@H]4O[C@H](CO)[C@@H](O)[C@H](O)[C@H]4O)c(OC)c(O)c3c(=O)c2OC)cc1O` is > 4 mM (inactive). As for `Clc1ccccc1OCc1nc(-c2ccccn2)no1`, the Kd was > 4 mM (inactive). With `NC1CSCC1O` (centres undefined) the figure was > 4 mM (inactive); with `N#Cc1cc(-c2ccccc2)oc1N`, > 4 mM (inactive); with `O=[N+]([O-])c1ccc(/C=N/c2ncn[nH]2)cc1`, > 4 mM (inactive). With `CN1CCN(CC(=O)Nc2ccccc2)CC1` the figure was > 4 mM (inactive); with `COc1cc2ccc(=O)oc2c2ccoc12`, > 4 mM (inactive). Take `Cc1cc(=O)cc(C)n1NC(N)=S`: the Kd was > 4 mM (inactive). With `Cc1ccccc1N1C(=O)CC(=O)NC1=O` the figure was > 4 mM (inactive); with `CNC(=S)Nc1cccc(C(=O)O)c1`, > 4 mM (inactive); with `Nc1ccccc1C(=O)CC(N)C(=O)O` (centres undefined), > 4 mM (inactive). On to `Nc1ccc2c(c1)C(=O)OC2`, for which the Kd is > 4 mM (inactive).

For the molecule `COc1ccc2c(c1OC)C(=O)O[C@@H]2[C@@H]1c2cc3c(cc2CCN1C)OCO3`, the Kd was > 4 mM (inactive). The figure for `Cc1cc(SCCF)n2ncnc2n1` is > 4 mM (inactive). Consider `CC(C)=CCc1c(O)cc(C)oc1=O`, for which the Kd is > 4 mM (inactive).

Consider `Cc1cccc(NC(=O)NC(N)=O)c1`, for which the Kd was > 4 mM (inactive). The figure for `Nc1ccc(Cc2ccc(N)cc2)cc1` is > 4 mM (inactive); for `CC(C)(O)[C@@H]1Cc2cc3ccc(=O)oc3cc2O1` it is > 4 mM (inactive); for `CC(=O)Nc1ccc(S(=O)(=O)NC2=NCCS2)cc1` it is > 4 mM (inactive).

As to `Cc1ncoc1C(=O)Nc1ccccc1C(N)=O`, the Kd was > 4 mM (inactive). With `CN(C)S(=O)(=O)c1ccc(NC=O)cc1` the figure was > 4 mM (inactive). For `C[C@H](CCC(=O)O)[C@H]1CCC2C3C(CC[C@@]21C)[C@@]1(C)CC[C@@H](O)C[C@H]1C[C@H]3O` (some centres undefined), the Kd was > 4 mM (inactive). The figure for `COCC(=O)OCn1nnc2ccccc2c1=O` is > 4 mM (inactive); for `COc1cc(-c2coc3cc(OC)c(OC)c(OC)c3c2=O)cc(OC)c1OC` it is > 4 mM (inactive). For `Cn1ccc(C(=O)NC(=S)NN2CCOCC2)n1`, the Kd was > 4 mM (inactive).

Turning to `Oc1ccc(-n2cncn2)cc1`, the Kd was > 4 mM (inactive). The figure for `CC(=O)Nc1cc(C(N)=O)cc(C(N)=O)c1` is > 4 mM (inactive); for `O=c1[nH]cc(N=Cc2ccc(F)cc2)c(=O)[nH]1` it is > 4 mM (inactive); for `O=C1NCCCC1C(=O)N1CCCCC1` (centres undefined) it is > 4 mM (inactive). The figure for `COc1ccc(NC(=O)CSc2nccc(=O)[nH]2)cc1` is > 4 mM (inactive); for `O=C(O)Cn1c(=O)sc2ccccc21` it is > 4 mM (inactive).

For `C/C=C(/C)C(=O)O[C@@H]1[C@H](OC(C)=O)[C@@]2(CO)C(CC1(C)C)C1=CCC3[C@@]4(C)CC[C@H](O[C@@H]5O[C@H](C(=O)O)[C@@H](O[C@@H]6O[C@H](CO)[C@@H](O)[C@H](O)[C@H]6O)[C@H](O)[C@H]5O[C@@H]5O[C@H](CO)[C@@H](O)[C@H](O)[C@H]5O)[C@](C)(CO)C4CC[C@@]3(C)[C@]1(C)C[C@H]2O` (some centres undefined), the Kd was > 4 mM (inactive). The figure for `CC1(C)CC2(CCO1)NCCN1C(=O)CSC12` (centres undefined) is > 4 mM (inactive); for `CN1C2CC[C@@H]1CC(OC(=O)[C@H](CO)c1ccccc1)C2` (some centres undefined) it is > 4 mM (inactive); for `CC(=O)OC1CCC23CC1(C)CCC2C(C)(C)CC3OC(C)=O` (centres undefined) it is > 4 mM (inactive).

Turning to `NC(=O)/C=C/C(=O)Nc1ccccc1`, the Kd is > 4 mM (inactive). In the case of `O=C(Nc1cccc(O)c1)c1ccccc1`, the Kd is > 4 mM (inactive). With `COC1C(O)C(O)C(O)[C@@H](O)C1O` (some centres undefined) the figure was > 4 mM (inactive); with `CC(=O)Nc1ccc(NC(C)=O)cc1`, > 4 mM (inactive); with `COc1ccc(C(N)=O)cc1NC(C)=O`, > 4 mM (inactive). With `O=c1[nH]nc(Cc2ccccn2)c2ccccc12` the figure was > 4 mM (inactive).

On to `CON(C)C(=O)Nc1ccc(Cl)cc1`, for which the Kd was > 4 mM (inactive). For the molecule `COc1cc2c3cc1Oc1c(OC)c(OC)cc4c1[C@@H](Cc1cccc(c1)Oc1ccc(c(O)c1)C[C@@H]3N(C)CC2)N(C)CC4`, the Kd is > 4 mM (inactive). Consider `NC(=O)CNC(=O)c1ccc2ccccc2n1`, for which the Kd is > 4 mM (inactive).

For `C=CCSCC=C`, the Kd was > 4 mM (inactive). As for `CCc1ccc(/C=N/n2cnnc2)cc1`, the Kd was > 4 mM (inactive).
